One data set deals with HT29 cell line. The data set can be described thus: Invasion assay, HT29 (dose/response). The class given is cell-based, human. The note with it: for cell invasion: treated 48 h, 1 μM, 10 μM, 50 μM, vs DMSO. As for the experimental part:
[The procedure below names another cell line; the source lists this cell line under the same test.] For invasion assays, cells were treated with Hakin-1 or DMSO as vehicle for 48 h using 1% FBS during the last 24 hours. 3×10^5 MDCK, MDCK-Hakai or LoVo cells were seeded in a cell invasion chamber (Cell invasion assay kit, Chemicon International) containing medium with 2% FBS. After 72 hours for MDCK and MDCK-Hakai Invasive and 16 h for LoVo cells, invasive cells invaded that reach the lower chamber containing 30% FBS were fixed and stained with crystal violet (Sigma Aldrich, St Louis, Mo.) following the manufacturer's specifications. For migration assays, HT29 cells were cultured with Hakin-1 or DMSO as vehicle for 48 h, using medium without serum the last 24 h. In the cell migration chamber were seeded 3×10^5 HT29 cells (Cell migration kit, Millipore, Bedford, Mass.) containing medium without serum. After 16 h, migrated cells in the lower chamber containing serum with 30% FBS were stained with crystal violet and counted following the manufacturer's specifications. For both invasion and migration assays cells were counted in five fields photographed with an Olympus microscope using a 20× objective, experiments were performed in triplicates for each condition and the assays were repeated at least three times. Results are expressed as mean±SD.

Data set [1] concerns the target T1, E3 ubiquitin-ligase Hakai (Mus musculus, UniProt Q9JIY2).
T1 construct: expressed in transfected cells; host or cells: HEK293T
T1 sequence (Q9JIY2 1-491): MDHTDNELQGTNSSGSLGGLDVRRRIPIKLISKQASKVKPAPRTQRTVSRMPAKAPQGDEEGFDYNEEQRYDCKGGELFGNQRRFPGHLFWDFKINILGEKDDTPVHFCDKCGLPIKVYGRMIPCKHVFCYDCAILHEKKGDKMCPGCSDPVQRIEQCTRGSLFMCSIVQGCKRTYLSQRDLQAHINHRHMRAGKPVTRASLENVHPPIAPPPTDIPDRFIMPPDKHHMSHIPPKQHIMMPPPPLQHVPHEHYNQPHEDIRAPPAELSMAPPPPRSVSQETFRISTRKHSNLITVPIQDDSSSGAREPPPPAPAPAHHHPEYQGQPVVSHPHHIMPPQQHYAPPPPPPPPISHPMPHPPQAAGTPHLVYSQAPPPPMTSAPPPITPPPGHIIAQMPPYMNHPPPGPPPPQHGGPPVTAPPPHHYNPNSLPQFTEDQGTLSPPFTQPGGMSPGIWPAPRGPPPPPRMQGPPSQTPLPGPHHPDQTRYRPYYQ
The data set can be described thus: In vivo Hakai-dependent ubiquitination assay in 293T cells. The class given is cell-based. The conditions noted are these: vs DMSO. The method, then: For ubiquitination assays, 750.000 HEK293T cells were seeded in 6-well cell culture plates and after 24 h were transfected with 0.25 μg Src, 0.75 μg Flag-Hakai, and 0.5 μg HA-ubiquitin with Lipofectamin 2000 (Invitrogen, UK). Six hours after transfection cells were treated with indicated concentrations of Hakin-1, Hakin-5 or the rest of the compounds tested for 36 h. Whole cell extracts were obtained in lysis buffer (20 mM Tris-HCl pH 7.5, 150 mM NaCl and 1% Triton X-100) containing 10 μg/ml leupeptin, 10 μg/ml aprotinin and 1 mM phenylmethanesulphonyl fluoride (PMSF), supplemented with 10 mM N-ethylmaleimide. Cells were harvested and subjected to western blotting using anti-HA antibody to detect ubiquitination.

The test system of data set [2] is human cryopreserved hepatocytes. The data set can be described thus: Hepatocyte stability, human. The class given is in vitro ADME. The conditions noted are these: 3 μM. The method, then:
Test compound (final substrate concentration 3 μM; final DMSO concentration 0.25%) were pre-incubated at 37° C., prior to the addition of a suspension of cryopreserved hepatocytes (final cell density 0.5×10^6 viable cells/mL in Williams E media supplemented with 2 mM L glutamine and 25 mM HEPES) to initiate the reaction. The reactions were stopped with acetonitrile containing internal standard at the appropriate time points ([…]). The termination plates were centrifuged at 2500 rpm at 4° C. for 30 minute to precipitate the protein. Following the hepatocyte stability assays, the samples were utilized for metabolite profiling. Hepatocyte stability in mouse and human was performed by using the incubation of tested compound (3 μM) with cryopreserved hepatocytes in suspension. Samples were removed at 6 time points over the course of a 60 min experiment and remaining test compound at each time point was analysed by using LC-MS/MS. Then, data was analysed and an intrinsic clearance (CLint) with standard error and half-life (t½) reported.

For the next data set, the system named is HT-29 cells. The data set can be described thus: Immunofluorescence of E-cadherin, HT-29. The class given is cell-based, human. The method, then:
For western blot analysis, cells were treated with the indicated inhibitors for 48 h and the whole cell extracts were obtained as described previously. Twenty micrograms of lysates were resolved on a 10% polyacrilamide SDS-PAGE followed by western blot analysis performed as previously described. For immunofluorescence assays cells were grown for 24 h on glass coverslips and treated with the indicated inhibitors for 48 h. Cells were fixed with 4% PFA for 15 min, permeabilized with 0.5% […] and incubated with E-cadherin antibody for 2 h. Coverslips were incubated with fluorescein-tagged secondary antibody (Dakopatts, Sweden) for […]. Finally coverslips were mounted with ProLong Gold antifade reagent (LifeTech, UK) and images were taken in epifluorescence microscope (Olympus) using 40× objective. Immunofluorescence of E-cadherin and DNA content analysis for FIGS. 22-23 were performed culturing of HT-29 human colorectal adenocarcinoma cell line in 384-well plates with densities of 3,000 cells per well in a total volume of 25 μl. After the completion of the staining, four images (2×2 array) of each well were taken with Vala Sciences' SIM™ with a 20× objective. Each image was acquired as a SIM Synthetic Focus with a z-stack range of 6 μm with 1 μm steps. The SIM Synthetic Focus feature will compile a “best focus” images from multiple images. One set of SIM Synthetic Focus images were taken in the DAPI channel for Hoechst 33342 staining, and another set of images were taken in the FITC channel for anti-E-cadherin-AlexaFluor488 labeling and analysed by Structured Illumination Microscopy (SIM™) platform to image the cells and Vala's CyteSeer® Cell-Cell Junction Algorithm to quantify the degree of expression and intracellular location of E-cadherin Vala's CyteSeer® Software can also measure relative DNA content by analyzing Total Integrated Intensity (TII) of the Nuclear Image (Ni) on the Nuclear Mask (Nm). This analysis was performed by Vala Science. Twenty compounds from were assayed in a “blinded” manner, at 2 test concentrations in 6 replicate wells for first assay and 3 replicate for second assay.

Entries after “also recorded” stand apart in the source; their conditions may differ.

On to `O=C(O)c1ccc(-n2nnnc2SCC(O)c2ccc([N+](=O)[O-])cc2)cc1` (stereo not shown) [MKH1], for which the IC50 in the data set on HT29 cell line (Homo sapiens, HT-29, treated 48 h, read-out: concentration at which 50% inhibition of invasion was achieved) is roughly 1000 nM. For the same compound, in the data set on HT29 cell line, the cell invasion entry is given as “reduce cell invasion”. In addition, the Hakai-induced ubiquitination entry in data set [1] (HEK293T cells transfected with Hakai and ubiquitin) is “reduced ubiquitination at 20 μM and 100 μM”. The “compound remaining after 60 min” value in data set [2] is recorded as 95%-100%. The “E-cadherin expression at cell-cell contacts (immunofluorescence, Image J)” value with HT-29 cells (48 hours, 5-100 μM, vs DMSO vehicle control) is on record as “significantly increase expression of E-cadherin”.

Turning to `O=C(O)c1ccc(-n2nnnc2SCC(=O)c2ccc([N+](=O)[O-])cc2)cc1` [Hakin-1, 4-(5-[2-(4-nitrophenyl)-2-oxoethyl]thiol-1H-tetrazol-1-yl)benzoic acid], the cell invasion entry in the data set with HT29 cell line is reported as “reduce cell invasion”. Besides, in data set [1] (293T cells transfected with Src, Flag-Hakai and HA-ubiquitin), the Hakai protein levels entry is given as “no effect was seen in Hakai protein levels; also recorded: without affecting Hakai protein levels”. For the same compound, the “ubiquitination mediated by Hakai” value in data set [1] (293T cells transfected with Src, Flag-Hakai and HA-ubiquitin, western blotting anti-HA) is “strongly reduces the ubiquitination mediated by Hakai in a doses dependent-manner; also recorded: specific inhibitor for Hakai-mediated ubiquitination”. In addition, the “compound remaining after 60 min” value in data set [2] stood at 77.3%. Moreover, the “E-cadherin levels at cell-cell contacts (immunofluorescence)” value with HT-29 cells (48 h, vs DMSO) is “significant increase E-cadherin levels at cell-cell contacts”.

The record behind these values is US20230181535A1, “UBIQUITIN-LIGASE INHIBITORS FOR THE TREATMENT OF CANCER” (FUNDACIÓN PROFESOR NOVOA SANTOS, priority 2020, published 2023).
